The values that follow come from patent publication US20230365568A1, “PLK1 POLO BOX DOMAIN INHIBITORS AND METHOD OF TREATING CANCER” (The United States of America,as represented by the …, priority 2020, published 2023).

Like-named read-outs stand apart in the source and are kept apart here.

The target of data set [1] is T1, PBD of Plk1 (Homo sapiens (Human), UniProt P53350). The settings on record: Gunasekaran et al., 2020; cited from earlier work.
A short description of data set [2]: In vivo mouse pharmacokinetics, intraperitoneal. The following applies: mice. As to the method:
The National Cancer Institute Animal Care and Use Committee approved all animal experiments conducted in this study.
In the in vivo mouse pharmacokinetics study, 6-8-week-old male C57BL/6 mice were selected for metabolite profiling. In brief, 200 μL/20 g mice of WA (20 mg/kg dissolved in 5% DMSO and 5% Tween 80-contained saline) was administered intraperitoneally to mice. Control mice were treated with saline containing 5% DMSO and 5% Tween 80 alone. […] Blood samples were collected by retro-orbital bleeding at 4 h postdose. After centrifugation for 10 min at 14 000×g, serum was obtained and prepared by mixing 20 μL serum with 180 μL 50% aqueous acetonitrile. After centrifugation at 14 000×g for 20 min, a 5 μL aliquot of the supernatants was injected into a Waters UPLC-ESI-QTOFMS system (Waters Corporation, Milford, MA).

The nature of data set [3]: Stability in mouse liver microsomes. It is filed as in vitro ADME. The settings on record: read-out: t1/2 Mouse LM. A general note: Liver microsomes are a subcellular fraction often used to study metabolism.
Data set [4] is described as follows: Stability in mouse cytosol. It is filed as in vitro ADME. The settings on record: read-out: t1/2 Mouse cytosol.
The nature of data set [5]: Stability in rat cytosol. It is filed as in vitro ADME. The following applies: read-out: t1/2 Rat cytosol.
The test system of data set [6] is Plk1 localization to centrosomes and kinetochores in HeLa cells. In words: Immunostaining of Plk1 localization and spindle morphology in HeLa cells. The following applies: 100 μM; for inhibition at 100 µM: Homo sapiens. It is filed as cell-based. As to the method:
HeLa cells were cultured as recommended by the American Type Culture Collection (ATCC). Asynchronously growing cells were treated with control DMSO or the indicated concentration of 143. To reveal chromosome morphologies, cells were treated with 4′,6-diamidino-2-phenylindole (DAPI), fixed, and subjected to confocal microscopy. Immunostaining was carried out using anti-Plk1 (Santa Cruz Biotechnology, Santa Cruz, CA), anti-Cep63 (MilliporeSigma), anti-CREST (Antibodies Incorp, Davis, CA), and anti-α-tubulin (Sigma, St. Louis, MO) antibodies. Confocal images were acquired using a Zeiss LSM780 equipped with a plan-apochromat 63× (N.A. 1.4) oil-immersion objective lens, 34-channel GaAsP spectral detector (Carl Zeiss Microscopy, LLC.), and 8-bit, 0.5-μm z-steps.
To quantify fluorescence signal intensities, images were acquired under the same settings and the images obtained after the maximum-intensity projection of z-stacks were analyzed using the Zeiss ZEN v2.1 software (Carl Zeiss Microscopy, LLC). All the quantifications were performed with randomly chosen fields from at least three independent experiments. All values are given as mean±s. D. P values were calculated by unpaired t test from the mean data of each group in Graph Pad Prism (***P<0.001). The statistical details including the definitions and value of n (e.g., number of experimental replicates, cells, etc.) And standard deviations are provided herein.
To directly examine whether the observed mitotic arrest was the consequence of inhibiting Plk1 PBD function, immunostaining analysis was carried out to determine the ability of intracellular Plk1 to localize to centrosomes and kinetochores, an event that requires PBD-mediated protein-protein interaction (Lee et al., Trends Pharmacol. Sci. 36, 858-877 (2015); and Elia et al., Cell 115, 83-95 (2003)). […] A short treatment time (i.e., 2 h), which was intended to minimize a potential indirect effect of these inhibitors, was sufficient to delocalize greater than 70% of Plk1 signals from centrosomes (marked by anti-Cep63 signals) and 90% of those from kinetochores (marked by anti-CREST signals).

Data set [7] in a line: Stability in rat liver microsomes (Table 10). It is filed as in vitro ADME. The following applies: read-out: t1/2 Rat LM.
Data set [8] concerns the target full-length human Plk1 (Homo sapiens (Human), UniProt P53350). In words: ELISA-based Plk1 PBD-binding inhibition assay. The following applies: Plk1 PBD; n = 3 unless noted. The protocol:
An ELISA-based PBD-binding inhibition assay was performed essentially as described previously. […] The wells were washed once with PBS+0.05% Tween20 (PBST) and incubated with 200 μl of PBS plus 1% BSA (blocking buffer) for 1 h to prevent non-specific binding. HEK293A lysates expressing HA-EGFP-Plk1 were prepared in a TBSN [20 mM Tris-HCl (pH 8.0), 150 mM NaCl, 0.5% NP-40, 5 mM EGTA, 2 mM MgCl2, 1.5 mM EDTA, and protease inhibitor cocktail (Roche)]+20% DMSO buffer (˜20 μg total lysates in 100 μl buffer), mixed with the indicated amount of the competitors (p-T78 peptide and its derivative compounds) for 30 min, provided onto the biotinylated peptide-coated ELISA wells, and then incubated with constant rocking for 1 h at 25° C. Following the incubation, ELISA plates were washed 5 times with PBST. To detect bound HA-EGFP-Plk1, the plates were probed for 2 h with 100 μl/well of anti-HA antibody at a concentration of 0.5 μg/ml in the blocking buffer and then washed 5 times. The plates were further probed for 1 h with 100 μl/well of HRP-conjugated secondary antibody (GE Healthcare) at a 1:1,000 dilution in the blocking buffer. The plates were washed 5 times with PBST and incubated with 100 μl/well of 3,3′,5,5′-tetramethylbenzidine solution (Sigma-Aldrich, St. Louis, MO) as substrate until a desired absorbance was reached. The reactions were stopped by the addition of 100 μl/well of stop solution (Cell Signaling Technology, Danvers, MA). The optical density (O.D.) was measured at 450 nm by using a Perkin-Elmer Enspire Multimode Plate reader (PerkinElmer, Inc., Boston, MA). Data obtained from more than three independent experiments were analyzed by GraphPad (San Diego, CA) Prism software version 7.
ELISA-based PBD-binding Inhibition Assay. […] The reaction products were measured at 450 nm by using a Perkin-Elmer Enspire Multimode Plate reader (PerkinElmer, Inc., Boston, MA). Data obtained from more than three independent experiments were analyzed by GraphPad (San Diego, CA) Prism software version 7.
On the technique in general: In an ELISA, binding on a coated surface is turned into a signal by an enzyme label.

Data set [9] can be described thus: Stability in human liver microsomes. It is filed as in vitro ADME. The following applies: read-out: t1/2 Human LM.
The nature of data set [10]: Stability in human cytosol. It is filed as in vitro ADME. The settings on record: read-out: t1/2 Human cytosol.
Data set [11] in a line: In vitro stability in mice (mouse liver microsome assay). It is filed as in vitro ADME. The following applies: liver microsomes, pH 7.4, read-out: t1/2 in vitro. The protocol: The reaction was stopped by an aliquot of 200 μL of ice-cold acetonitrile after 60 min. After centrifugation at 14 000×g for 10 min, a 5 μL aliquot of the supernatant was injected into a UHPLC-[…]. […] A trace amount of the subsequent glucuronide of the demethylated metabolite was also seen in the serum, as it could be promptly excreted from the liver to the bile, once generated, and can then undergo enterohepatic circulation through which the demethylated product is reabsorbed to the circulation. This could also serve as an explanation for the increased demethylated metabolite at the last time point.

The conditions of data set [12]: rat, microsomes.
Data set [13] has as its target T1, PBD of Plk1. In words: Fluorescence polarization (FP)-based PBD inhibition assay, Plk1. It is filed as binding. As to the method: (§1) FP assays were carried out essentially as described previously (Qian, ibid). […] All experiments were performed in triplicate for each sample.
(§2) PBD Fluorescence Polarization (FP) Binding Assays for Plk1 specificity. […] All experiments were performed in triplicate for each sample.
In general terms: Fluorescence polarisation rises when a labelled molecule tumbles more slowly, as on binding a larger partner.

Data set [14] concerns the target PBD of Plk2 (Homo sapiens (Human), UniProt Q9NYY3). In words: Fluorescence polarization (FP)-based PBD inhibition assay, Plk2. It is filed as binding. As to the method: as §1, §2
In data set [15] the target is PBD of Plk3 (Homo sapiens (Human), UniProt Q9H4B4). In words: Fluorescence polarization (FP)-based PBD inhibition assay, Plk3. It is filed as binding. The protocol:
as §1, §2

The nature of data set [16]: Aqueous solubility. The settings on record: for Solub.: aqueous solubility.
A short description of data set [17]: Microsomal metabolic stability, rat liver microsomes (RLM). The settings on record: rat liver microsomes.
Data set [18] deals with HeLa cells. The settings on record: cancer cells in vitro; Alverez et al., 2020; cited from earlier work.
Data set [19] in a line: in vitro. The settings on record: PAMPA.
Data set [20] has as its system CYP3A. The data set is described as follows: Mouse liver microsome assay with CYP-specific inhibitors. It is filed as in vitro ADME. The following applies: mouse liver microsomes. As to the method:
In Vitro MLM Assay. Incubations of the mouse liver microsome (MLM) samples were performed in duplicate. Reactions (200 μL final volume) were conducted in 50 mM potassium phosphate buffer, 3 mM MgCl2 (pH 7.4), 1 mg/mL MLM protein, and 2.5 μM test compound with or without 50 μM inhibitor. The mixture was preincubated at 37° C. for 3 min and initiated with 4 mM NADPH. At the serial time of the incubation, 20 μL of the mixture was added to ice-cold 80 μL of 90% acetonitrile including 4 μM of 4 followed by a 25 min incubation on ice and centrifugation at 14,000×g for 10 min. 40 μL of supernatant was diluted with 20 μL of water, and a 5 μL aliquot was injected into the UPLC-QTOF system.
To evaluate metabolic stability information, S-methyl 51 and 5-thio-1-methyl-4-nitroimidazolyl 73 prodrugs were administered orally in male C57BL/6 mice via gavage 50 mg/kg or 20 mg/kg, respectively. […] The AUCs of 14 were 523,200 mg-h/L and 317,600 mg-h/L in 50 mg/kg and 20 mg/kg doses, respectively. Compound 14 was further metabolized by glucuronidation. […] The presence of the 9-F group impeded the hydroxylation, compared to the PK studies in Alverez et al. (J. Med. Chem. 63, 14087-14117 (2020)).

T1 sequence (P53350 326-603): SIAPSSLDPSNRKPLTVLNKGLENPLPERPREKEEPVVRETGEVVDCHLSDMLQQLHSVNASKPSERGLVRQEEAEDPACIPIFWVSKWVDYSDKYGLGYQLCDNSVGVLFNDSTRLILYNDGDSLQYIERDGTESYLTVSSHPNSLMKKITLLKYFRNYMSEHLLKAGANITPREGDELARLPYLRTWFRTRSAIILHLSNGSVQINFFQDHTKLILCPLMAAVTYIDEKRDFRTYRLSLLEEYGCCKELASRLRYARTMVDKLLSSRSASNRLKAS
Chain of PBD of Plk3 (Q9H4B4 335-646): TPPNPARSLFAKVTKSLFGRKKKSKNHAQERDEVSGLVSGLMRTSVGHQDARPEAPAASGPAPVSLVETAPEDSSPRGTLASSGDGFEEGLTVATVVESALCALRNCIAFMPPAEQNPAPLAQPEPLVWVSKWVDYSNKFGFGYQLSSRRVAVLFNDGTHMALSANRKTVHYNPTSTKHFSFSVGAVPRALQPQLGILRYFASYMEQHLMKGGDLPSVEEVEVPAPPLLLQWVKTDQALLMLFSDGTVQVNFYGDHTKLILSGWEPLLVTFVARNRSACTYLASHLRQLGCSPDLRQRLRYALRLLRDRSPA
Chain of PBD of Plk2 (Q9NYY3 355-685): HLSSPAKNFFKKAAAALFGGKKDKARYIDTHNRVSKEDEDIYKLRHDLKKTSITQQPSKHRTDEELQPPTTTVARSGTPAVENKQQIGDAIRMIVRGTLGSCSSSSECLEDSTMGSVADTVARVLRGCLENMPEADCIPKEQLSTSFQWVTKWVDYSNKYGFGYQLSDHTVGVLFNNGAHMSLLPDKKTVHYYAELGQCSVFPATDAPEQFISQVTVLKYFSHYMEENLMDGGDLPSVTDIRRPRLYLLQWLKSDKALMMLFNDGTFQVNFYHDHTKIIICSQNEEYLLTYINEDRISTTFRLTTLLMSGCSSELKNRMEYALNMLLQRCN
Chain of full-length human Plk1 (P53350 whole entry): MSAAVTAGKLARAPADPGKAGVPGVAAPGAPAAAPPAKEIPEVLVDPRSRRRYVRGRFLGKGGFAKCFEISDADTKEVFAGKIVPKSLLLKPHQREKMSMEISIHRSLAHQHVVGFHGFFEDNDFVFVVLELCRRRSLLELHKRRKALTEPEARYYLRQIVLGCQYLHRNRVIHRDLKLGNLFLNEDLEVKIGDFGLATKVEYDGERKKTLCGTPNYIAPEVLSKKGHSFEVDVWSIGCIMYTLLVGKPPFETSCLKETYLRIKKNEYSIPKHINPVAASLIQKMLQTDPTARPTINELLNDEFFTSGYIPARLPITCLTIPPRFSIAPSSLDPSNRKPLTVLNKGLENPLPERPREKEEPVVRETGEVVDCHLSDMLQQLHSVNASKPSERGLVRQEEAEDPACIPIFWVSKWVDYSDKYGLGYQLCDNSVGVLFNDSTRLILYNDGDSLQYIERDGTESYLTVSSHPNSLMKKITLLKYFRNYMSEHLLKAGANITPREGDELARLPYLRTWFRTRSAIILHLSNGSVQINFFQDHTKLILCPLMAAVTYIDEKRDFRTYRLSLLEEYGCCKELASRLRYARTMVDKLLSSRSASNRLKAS

Turning to `CNc1ccc(C(=O)NCCn2cc(C=C3C(=O)NC(=O)NC3=O)c(-c3ccccc3)n2)cc1` [KBJK557], the “cross-reactivity among Plk1-3 PBDs” value in data set [1] is listed as “considerable cross-reactivities among Plk1-3 PBDs”.
Take `CCCn1c(=O)c2ccccc2n2c(SC)nnc12` [compound 143, 1-(methylthio)-4-propyl-[1,2,4]triazolo[4,3-a]quinazolin-5(4H)-one]: the half-life in data set [2] (male, C57BL/6, mouse, serum, ip, 20 mg/kg, in vivo, intraperitoneal, read-out: t1/2 in vivo) is 28.7 ± 8.3 min; in [3], 3.77 min; in data set [4], more than 120 min; in [5] it was more than 120 min; in data set [7], 9.41 min; in [9], 16.8 min. Also, the half-life in data set [10] was more than 120 min. Moreover, the metabolites in serum entry in data set [2] (≥15 min post-injection) was “both the hydroxylated and demethylated products were detected in the serum”. In addition, the spindle bipolarity result in data set [6] is “significantly compromised”. Besides, the inhibition at 100 µM in data set [6] (read-out: inhibition of Plk1 localization to centrosomes) was approximately 20%; in data set [6] (read-out: inhibition of Plk1 localization to kinetochores), approximately 50%. This molecule also displayed an IC50 in [8] of more than 50 µM. Also, in [11], the half-life at 20 µM is 11.4 ± 3.49 min.
With `CCCn1c(=O)c2cccc(F)c2n2c(SC)nnc12` [compound 145, 9-fluoro-1-(methylthio)-4-propyl-[1,2,4]triazolo[4,3-a]quinazolin-5(4H)-one], in data set [11], the half-life at 20 µM came out at 21.8 ± 6.03 min.
Consider “7-fluoro-4-(2-(piperidin-1-yl)ethyl)-1-thioxo-2,4-dihydro-[1,2,4]triazolo[4,3-a]quinazolin-5(1H)-one [Example 49]”, for which the “t1/2 (min, RLM)” value in data set [12] is on record as more than 30 min.
With PLHST [6b], the “activity in FP-based assay” value in [13] is “no detectable activity”.
Consider `O=c1c2cc(F)ccc2n2c(=S)[nH]nc2n1CC1CC1` [compound 79], for which the “PAMPA” value is 46.0 ×10⁻⁶ cm/s. For the same molecule, in data set [14], the “inhibition of Plk2 PBD, FP assay” value is on record as “failed to exhibit any detectable level of inhibition”. Also, in data set [15], the “inhibition of Plk3 PBD, FP assay” value is “failed to exhibit any detectable level of inhibition”. Further, in data set [16], the solubility entry is reported as “moderate to good solubility” and the “Solub.” value is 16.2 µg/mL. The “t1/2 (min, RLM)” value in data set [17] is more than 30 min.
On to `CSc1nnc2n(CCc3ccccc3)c(=O)c3ccccc3n12` [Example 6, 1-(methylthio)-4-phenethyl-[1,2,4]triazolo[4,3-a]quinazolin-5(4H)-one], for which, in data set [18], the “concentration required to induce mitotic arrest and affect proliferation” value is more than 100 µM.
`Cc1noc(C)c1C=CC(=O)NCCCn1c(=O)c2cc(F)ccc2n2c(=S)[nH]nc12` [compound 121, 3-(3,5-dimethylisoxazol-4-yl)-N-(3-(7-fluoro-5-oxo-1-thioxo-1,2-dihydro-[1,2,4]triazolo[4,3-a]quinazolin-4(5H)-yl)propyl)propenamide] registered a Papp in data set [19] of 27.6 ×10⁻⁶ cm/s.
Turning to `CC(=O)NCCCn1c(=O)c2cc(F)ccc2n2c(=S)[nH]nc12` [compound 73], the “PAMPA” value was found to be 18.0 ×10⁻⁶ cm/s. Also, in data set [20], the “sensitivity of conversion to 14 to ketoconazole (CYP3A inhibitor)” value is “refractory to ketoconazole treatment”. In addition, the “Solub.” value in [16] is more than 50 µg/mL. Moreover, the “t1/2 (min, RLM)” value in data set [17] was more than 30 min.

One may read the inhibition as the share of the control response that was lost under treatment. Broadly, the IC50 is the concentration needed to halve the response being measured. Low values mean higher potency, high ones lower potency. Broadly, the Papp is the rate of passage across a membrane or cell layer, normalised by area and donor concentration. Lower therefore signals poor permeation.
